According to patent US20090270309A1, “USE OF LACTOFERRIN FRAGMENTS AND HYDROLYSATES” (priority 2005, published 2009):

Test system: primary rat osteoblasts
Test: Proliferation of primary rat osteoblasts (cell counts and [3H]-thymidine incorporation)
Format: cell-based
Conditions: for Mitogenic / proliferative effect on primary osteoblasts (in words): significantly different from control by ANOVA, post hoc Dunnett's test
Method: Osteoblasts were isolated by collagenase digestion from 20-day fetal rat ? viously described by Lowe, et al. (1991). Calvariae were dissected aseptically, and the frontal and parietal bones were stripped of their periosteum. Only the central portions of the bones, free from suture tissue, were collected. The calvariae were treated twice with phosphate buffered saline (PBS) containing 3 mM EDTA (pH 7.4) for 15 minutes at 37° C. in a shaking water bath. After washing once in PBS, the calvariae were treated twice with 3 ml of 1 mg/ml collagenase for 7 minutes at 37° C. After discarding the supernatants from digestions I and II, the calvariae were treated further two times with 3 ml of 2 mg/ml collagenase (30 mins, 37° C.). The supernatants of digestions III and IV were pooled, centrifuged, and the cells washed in Dulbecco's modified Eagle's medium (DME) with 10% fetal calf serum (FCS), suspended in DME/10% FCS, and placed in […] flasks. The cells were incubated under 5% CO2 and 95% air at 37° C. Confluence was reached by 5-6 days, at which time the cells were subcultured. After trypsinization using trypsin-EDTA (0.05%/0.53 mM), the cells were rinsed in minimum essential medium (MEM) with 5% FCS and resuspended in a fresh medium, then seeded at 5×10^4 cells/ml in 24-well plates (0.5 ml cell suspension per well, i.e., 1.4×10^4 cells/cm^2).
Proliferation studies (cell counts and thymidine incorporation) were performed both in actively growing and non-actively growing cell populations. To produce actively growing cells, sub-confluent populations (24 h after subculturing) were placed in fresh MEM containing 1% FCS and a lactoferrin fragment sample (see Table 1 below). To produce non-actively growing cells, sub-confluent populations were placed in serum-free medium with 0.1% bovine serum albumin plus a lactoferrin fragment sample. Cell numbers were analyzed at 6, 24, and 48 hours after the addition of lactoferrin fragment samples. The cell numbers were determined after detaching cells from the wells by exposure to trypsin/EDTA (0.05%/0.53 mM) for approximately 5 minutes at 37° C. Counting was performed in a haemocytometer chamber. [3H]-thymidine incorporation into actively growing and non-actively growing cells was assessed by pulsing the cells with [3H]-thymidine (1 μCi/well) two hours before the end of the incubation. The experiment was terminated at 6, 24, or 48 hours by washing the cells in MEM containing cold thymidine followed by the addition of 10% trichloroacetic acid. The precipitate was washed twice with ethanol:ether (3:1), and the wells desiccated at room temperature. The ? redissolved in 2 M KOH at 55° C. for 30 min, neutralized with 1 M HCl, and an aliquot counted for radioactivity. For both cell counts and thymidine incorporation, each experiment at each time point was performed at least 4 different times using experimental groups consisting of at least 6 wells.
The osteogenic response seen above was compared with that of insulin-like growth factor 1 (IGF-1), a well-recognized osteoblast mitogen. The magnitudes of response of the lactoferrin fragments were similar to IGF-1 in the same osteoblast cell culture system.

[1] = primary rat osteoblasts, Table 1

Sequence	Mitogenic / proliferative effect on primary osteoblasts (in words) (figure legends)	Dose (ug/mL): minimum dose range that stimulates osteoblast proliferation [1] [µg/mL]	Dose (M): minimum dose range that stimulates osteoblast proliferation (primary rat osteoblasts, Table 1, printed as orders of magnitude, e.g. 10^−7/8)	Concentration at which osteoblast proliferation is significantly different from control (figure legends, post hoc Dunnett's test P<0.05 or P<0.01) [µg/mL]
FKCRRWQWRMKKLGA [SEQ ID NO. 17]	mitogenic to primary osteoblasts	0.1 to 10	–	–
RRWQWRMKKLG [SEQ ID NO. 16]	–	0.1 to 10	–	–
WKLLSKAQEKFGKNKS (listed as Bos taurus) [SEQ ID NO. 33]	mitogenic to primary osteoblasts	100	10^−5 M	–
FKCRRWQWRMKKLGAPSITCVRRAFA [SEQ ID NO. 14]	mitogenic to primary osteoblasts	0.01 to 1.0	–	0.01
